Assay results taken from ChEMBL document CHEMBL5678818, “Discovery of potent SOS1 inhibitors that block RAS activation via disruption of the RAS-SOS1 interaction” (Proc Natl Acad Sci U S A, 2019).

How the values were obtained:
[1] = target: Ephrin type-A receptor 5 (Homo sapiens) (UniProt P54756); assay: Inhibition of EPHA5 (unknown origin) assessed as residual activity at 1000 nM by KINOMEscan analysis relative to control
[2] = target: cAMP-dependent protein kinase catalytic subunit beta (Homo sapiens) (UniProt P22694); assay: Inhibition of PKAC-beta (unknown origin) assessed as residual activity at 1000 nM by KINOMEscan analysis relative to control
[3] = target: Calcium/calmodulin-dependent protein kinase kinase 2 (Homo sapiens) (UniProt Q96RR4); assay: Inhibition of CAMKK2 (unknown origin) assessed as residual activity at 1000 nM by KINOMEscan analysis relative to control
[4] = target: T1, Serine/threonine-protein kinase ULK1 (Homo sapiens) (UniProt O75385); assay: Inhibition of ULK1 (unknown origin) assessed as residual activity at 1000 nM by KINOMEscan analysis relative to control
T1 sequence (whole entry): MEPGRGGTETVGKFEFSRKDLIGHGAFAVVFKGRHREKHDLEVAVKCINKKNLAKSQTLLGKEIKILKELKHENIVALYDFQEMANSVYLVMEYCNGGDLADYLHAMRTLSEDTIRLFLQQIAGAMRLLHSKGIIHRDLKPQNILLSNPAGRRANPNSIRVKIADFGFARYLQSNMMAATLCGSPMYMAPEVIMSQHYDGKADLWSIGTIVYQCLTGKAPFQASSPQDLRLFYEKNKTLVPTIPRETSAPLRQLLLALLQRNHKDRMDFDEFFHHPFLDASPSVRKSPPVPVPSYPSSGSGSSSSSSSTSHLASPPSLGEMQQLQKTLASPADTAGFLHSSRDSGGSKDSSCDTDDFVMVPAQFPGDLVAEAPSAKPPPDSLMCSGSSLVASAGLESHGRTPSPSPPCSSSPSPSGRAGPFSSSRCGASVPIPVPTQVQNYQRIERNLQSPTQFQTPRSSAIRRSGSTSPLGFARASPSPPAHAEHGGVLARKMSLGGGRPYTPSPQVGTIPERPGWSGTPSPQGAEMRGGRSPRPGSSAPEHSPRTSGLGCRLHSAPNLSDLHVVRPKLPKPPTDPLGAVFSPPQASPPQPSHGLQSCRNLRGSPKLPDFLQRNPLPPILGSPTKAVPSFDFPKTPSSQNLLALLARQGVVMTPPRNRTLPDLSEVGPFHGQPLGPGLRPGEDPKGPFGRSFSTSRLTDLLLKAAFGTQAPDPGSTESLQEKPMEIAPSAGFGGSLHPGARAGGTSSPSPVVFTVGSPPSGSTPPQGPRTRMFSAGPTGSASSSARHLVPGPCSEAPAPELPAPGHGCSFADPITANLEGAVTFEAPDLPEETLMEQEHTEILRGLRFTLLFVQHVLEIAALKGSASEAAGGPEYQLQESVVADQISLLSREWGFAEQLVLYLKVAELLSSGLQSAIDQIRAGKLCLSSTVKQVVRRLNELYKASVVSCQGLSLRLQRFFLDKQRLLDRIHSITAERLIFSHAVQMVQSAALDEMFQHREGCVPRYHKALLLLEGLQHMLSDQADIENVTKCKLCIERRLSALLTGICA

[5] = system: Proto-oncogene tyrosine-protein kinase receptor Ret (Homo sapiens), P07949 [V804M]; assay: Inhibition of RET V804M mutant (unknown origin) assessed as residual activity at 1000 nM by KINOMEscan analysis relative to control
[6] = target: NT-3 growth factor receptor (Homo sapiens) (UniProt Q16288); assay: Inhibition of TRKC (unknown origin) assessed as residual activity at 1000 nM by KINOMEscan analysis relative to control
[7] = target: T2, Dual specificity mitogen-activated protein kinase kinase 5 (Homo sapiens) (UniProt Q13163); assay: Inhibition of MEK5 (unknown origin) assessed as residual activity at 1000 nM by KINOMEscan analysis relative to control
T2 sequence (whole entry): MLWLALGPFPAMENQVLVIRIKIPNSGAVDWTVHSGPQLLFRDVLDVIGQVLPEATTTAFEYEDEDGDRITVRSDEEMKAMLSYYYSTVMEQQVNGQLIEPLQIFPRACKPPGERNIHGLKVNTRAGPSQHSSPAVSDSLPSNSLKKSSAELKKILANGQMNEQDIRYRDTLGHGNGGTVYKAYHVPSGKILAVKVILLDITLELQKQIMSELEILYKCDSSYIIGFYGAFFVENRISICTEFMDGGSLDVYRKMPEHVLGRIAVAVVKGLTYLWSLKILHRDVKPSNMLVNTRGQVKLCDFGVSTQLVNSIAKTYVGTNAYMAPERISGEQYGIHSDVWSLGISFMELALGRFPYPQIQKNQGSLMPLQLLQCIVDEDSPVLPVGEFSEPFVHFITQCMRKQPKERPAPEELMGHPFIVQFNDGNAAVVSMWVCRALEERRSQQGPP

[8] = target: Cyclin-dependent kinase 11B (Homo sapiens) (UniProt P21127); assay: Inhibition of CDC2L1 (unknown origin) assessed as residual activity at 1000 nM by KINOMEscan analysis relative to control
[9] = target: T3, Serine/threonine-protein kinase STK11 (Homo sapiens) (UniProt Q15831); assay: Inhibition of LKB1 (unknown origin) assessed as residual activity at 1000 nM by KINOMEscan analysis relative to control
T3 sequence (whole entry): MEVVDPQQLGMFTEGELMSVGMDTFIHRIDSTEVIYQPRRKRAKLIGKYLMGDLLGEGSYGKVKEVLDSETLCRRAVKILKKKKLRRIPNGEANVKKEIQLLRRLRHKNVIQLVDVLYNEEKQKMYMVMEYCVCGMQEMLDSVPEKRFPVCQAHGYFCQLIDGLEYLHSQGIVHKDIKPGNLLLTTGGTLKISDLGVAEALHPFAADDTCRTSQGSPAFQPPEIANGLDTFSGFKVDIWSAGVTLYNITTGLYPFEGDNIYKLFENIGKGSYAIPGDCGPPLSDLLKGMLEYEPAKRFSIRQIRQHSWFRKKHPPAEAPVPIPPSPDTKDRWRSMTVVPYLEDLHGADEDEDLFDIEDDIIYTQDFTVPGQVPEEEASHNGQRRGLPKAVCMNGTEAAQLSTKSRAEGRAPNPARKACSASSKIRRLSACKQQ

[10] = target: Calcium/calmodulin-dependent protein kinase type II subunit delta (Homo sapiens) (UniProt Q13557); assay: Inhibition of CAMK2D (unknown origin) assessed as residual activity at 1000 nM by KINOMEscan analysis relative to control
Chain of Calcium/calmodulin-dependent protein kinase type II subunit delta (Homo sapiens) (Q13557 whole entry): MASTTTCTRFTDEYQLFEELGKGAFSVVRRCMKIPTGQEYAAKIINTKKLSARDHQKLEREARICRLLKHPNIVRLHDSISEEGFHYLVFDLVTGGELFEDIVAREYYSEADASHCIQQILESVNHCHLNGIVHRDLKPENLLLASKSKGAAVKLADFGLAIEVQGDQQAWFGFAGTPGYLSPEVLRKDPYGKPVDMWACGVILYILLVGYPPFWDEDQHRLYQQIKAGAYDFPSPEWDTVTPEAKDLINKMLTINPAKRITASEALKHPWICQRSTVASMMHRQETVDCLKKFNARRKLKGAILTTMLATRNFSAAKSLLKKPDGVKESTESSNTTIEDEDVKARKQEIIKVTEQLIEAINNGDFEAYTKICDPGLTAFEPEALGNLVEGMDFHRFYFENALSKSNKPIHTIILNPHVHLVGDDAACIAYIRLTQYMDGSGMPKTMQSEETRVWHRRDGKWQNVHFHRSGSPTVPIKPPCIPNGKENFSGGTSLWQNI

Chain of Ephrin type-A receptor 5 (Homo sapiens) (P54756 whole entry): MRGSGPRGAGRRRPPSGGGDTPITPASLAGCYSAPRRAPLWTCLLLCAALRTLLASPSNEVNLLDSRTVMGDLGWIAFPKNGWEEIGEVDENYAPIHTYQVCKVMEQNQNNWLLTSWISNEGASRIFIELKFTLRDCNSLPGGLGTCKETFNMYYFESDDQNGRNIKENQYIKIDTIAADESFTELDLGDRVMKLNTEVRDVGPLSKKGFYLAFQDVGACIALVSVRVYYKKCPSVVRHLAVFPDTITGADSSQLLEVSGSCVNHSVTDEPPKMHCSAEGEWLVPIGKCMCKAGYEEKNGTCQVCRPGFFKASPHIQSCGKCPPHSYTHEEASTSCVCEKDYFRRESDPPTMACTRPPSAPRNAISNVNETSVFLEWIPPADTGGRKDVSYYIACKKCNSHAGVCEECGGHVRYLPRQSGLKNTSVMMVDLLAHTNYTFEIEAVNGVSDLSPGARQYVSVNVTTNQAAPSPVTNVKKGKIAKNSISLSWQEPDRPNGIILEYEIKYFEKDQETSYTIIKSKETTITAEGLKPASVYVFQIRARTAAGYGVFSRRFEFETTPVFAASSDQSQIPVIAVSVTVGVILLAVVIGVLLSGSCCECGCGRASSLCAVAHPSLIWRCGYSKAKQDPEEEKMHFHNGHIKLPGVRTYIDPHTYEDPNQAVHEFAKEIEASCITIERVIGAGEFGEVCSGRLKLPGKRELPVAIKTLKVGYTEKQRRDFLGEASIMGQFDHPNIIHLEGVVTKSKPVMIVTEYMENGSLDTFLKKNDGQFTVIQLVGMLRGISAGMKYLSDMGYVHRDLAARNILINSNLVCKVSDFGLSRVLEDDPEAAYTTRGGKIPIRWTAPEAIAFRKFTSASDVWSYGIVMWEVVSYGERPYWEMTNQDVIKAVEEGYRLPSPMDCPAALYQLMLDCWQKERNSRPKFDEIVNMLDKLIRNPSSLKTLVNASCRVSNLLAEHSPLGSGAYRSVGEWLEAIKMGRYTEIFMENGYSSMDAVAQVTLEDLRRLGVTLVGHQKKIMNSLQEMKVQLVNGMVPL
Chain of NT-3 growth factor receptor (Homo sapiens) (Q16288 32-839 limits assumed): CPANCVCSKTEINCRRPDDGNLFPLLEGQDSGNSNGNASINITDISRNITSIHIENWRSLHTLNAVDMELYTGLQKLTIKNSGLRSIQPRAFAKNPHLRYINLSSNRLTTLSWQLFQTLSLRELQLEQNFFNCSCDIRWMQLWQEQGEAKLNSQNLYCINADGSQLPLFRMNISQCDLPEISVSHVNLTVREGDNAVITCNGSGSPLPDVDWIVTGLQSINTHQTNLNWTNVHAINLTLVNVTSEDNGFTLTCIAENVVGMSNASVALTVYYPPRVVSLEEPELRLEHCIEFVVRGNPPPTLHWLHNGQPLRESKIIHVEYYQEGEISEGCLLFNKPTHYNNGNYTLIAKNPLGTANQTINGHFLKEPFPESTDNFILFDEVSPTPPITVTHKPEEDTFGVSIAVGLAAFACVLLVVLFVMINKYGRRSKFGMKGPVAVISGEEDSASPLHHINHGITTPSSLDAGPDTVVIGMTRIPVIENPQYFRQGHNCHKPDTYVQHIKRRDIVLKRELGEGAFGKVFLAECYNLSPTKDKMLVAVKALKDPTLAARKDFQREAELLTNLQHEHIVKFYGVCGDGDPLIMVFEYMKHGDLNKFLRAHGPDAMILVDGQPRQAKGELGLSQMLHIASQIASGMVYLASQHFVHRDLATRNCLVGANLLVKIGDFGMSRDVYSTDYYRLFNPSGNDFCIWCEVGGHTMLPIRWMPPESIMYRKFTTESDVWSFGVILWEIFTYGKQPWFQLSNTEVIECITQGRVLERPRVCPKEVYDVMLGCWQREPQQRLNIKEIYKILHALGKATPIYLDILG
Chain of Cyclin-dependent kinase 11B (Homo sapiens) (P21127 whole entry): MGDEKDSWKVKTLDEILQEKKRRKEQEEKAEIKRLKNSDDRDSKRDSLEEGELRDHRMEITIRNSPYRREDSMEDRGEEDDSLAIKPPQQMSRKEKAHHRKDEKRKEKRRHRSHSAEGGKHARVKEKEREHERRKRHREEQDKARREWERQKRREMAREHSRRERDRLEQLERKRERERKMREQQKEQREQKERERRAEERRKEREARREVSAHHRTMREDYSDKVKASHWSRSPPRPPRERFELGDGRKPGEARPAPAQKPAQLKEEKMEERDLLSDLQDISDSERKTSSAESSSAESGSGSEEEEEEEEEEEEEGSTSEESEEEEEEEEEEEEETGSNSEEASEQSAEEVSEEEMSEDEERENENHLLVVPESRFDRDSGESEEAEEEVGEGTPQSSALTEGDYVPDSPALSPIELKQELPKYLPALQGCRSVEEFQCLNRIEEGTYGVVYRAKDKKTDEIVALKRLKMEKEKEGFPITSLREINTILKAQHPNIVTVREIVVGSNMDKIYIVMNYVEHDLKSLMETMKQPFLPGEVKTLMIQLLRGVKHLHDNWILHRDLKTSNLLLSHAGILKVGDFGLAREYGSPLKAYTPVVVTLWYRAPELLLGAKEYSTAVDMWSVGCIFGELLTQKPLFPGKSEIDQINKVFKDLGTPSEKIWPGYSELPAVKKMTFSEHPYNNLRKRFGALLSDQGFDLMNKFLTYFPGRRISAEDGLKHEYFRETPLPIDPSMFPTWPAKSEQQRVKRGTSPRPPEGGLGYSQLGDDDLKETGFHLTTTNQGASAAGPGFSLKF
Chain of Proto-oncogene tyrosine-protein kinase receptor Ret (Homo sapiens), P07949 [V804M] (P07949 whole entry V804M): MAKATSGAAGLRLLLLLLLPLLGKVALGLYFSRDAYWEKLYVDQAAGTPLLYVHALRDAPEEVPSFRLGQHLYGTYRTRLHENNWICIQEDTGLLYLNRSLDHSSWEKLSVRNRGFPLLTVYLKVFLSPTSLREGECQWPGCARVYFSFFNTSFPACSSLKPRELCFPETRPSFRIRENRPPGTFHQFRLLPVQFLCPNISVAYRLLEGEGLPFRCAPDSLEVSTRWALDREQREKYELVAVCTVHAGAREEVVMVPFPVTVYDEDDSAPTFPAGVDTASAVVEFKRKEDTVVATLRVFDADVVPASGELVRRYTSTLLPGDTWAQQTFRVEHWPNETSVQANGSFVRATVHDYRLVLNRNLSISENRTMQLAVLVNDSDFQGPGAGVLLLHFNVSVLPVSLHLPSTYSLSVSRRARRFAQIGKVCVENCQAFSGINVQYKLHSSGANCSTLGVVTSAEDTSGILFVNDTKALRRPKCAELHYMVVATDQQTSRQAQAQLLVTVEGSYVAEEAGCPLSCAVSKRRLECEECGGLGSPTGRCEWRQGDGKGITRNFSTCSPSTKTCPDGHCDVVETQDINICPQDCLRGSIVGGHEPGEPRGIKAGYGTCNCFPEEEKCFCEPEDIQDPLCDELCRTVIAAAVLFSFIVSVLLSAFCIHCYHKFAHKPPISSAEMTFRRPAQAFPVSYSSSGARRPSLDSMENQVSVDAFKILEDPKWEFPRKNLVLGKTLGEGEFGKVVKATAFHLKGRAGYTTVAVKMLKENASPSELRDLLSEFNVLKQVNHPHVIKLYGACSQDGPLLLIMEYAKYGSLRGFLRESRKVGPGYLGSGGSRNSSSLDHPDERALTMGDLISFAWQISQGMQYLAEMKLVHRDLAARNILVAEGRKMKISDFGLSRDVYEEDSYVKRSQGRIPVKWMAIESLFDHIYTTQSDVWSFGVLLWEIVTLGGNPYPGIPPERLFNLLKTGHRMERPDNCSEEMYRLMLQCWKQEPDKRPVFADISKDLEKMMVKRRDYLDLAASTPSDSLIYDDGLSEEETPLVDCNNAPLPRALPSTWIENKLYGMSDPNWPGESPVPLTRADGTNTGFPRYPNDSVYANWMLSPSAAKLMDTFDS
Chain of Calcium/calmodulin-dependent protein kinase kinase 2 (Homo sapiens) (Q96RR4 2-588 limits assumed): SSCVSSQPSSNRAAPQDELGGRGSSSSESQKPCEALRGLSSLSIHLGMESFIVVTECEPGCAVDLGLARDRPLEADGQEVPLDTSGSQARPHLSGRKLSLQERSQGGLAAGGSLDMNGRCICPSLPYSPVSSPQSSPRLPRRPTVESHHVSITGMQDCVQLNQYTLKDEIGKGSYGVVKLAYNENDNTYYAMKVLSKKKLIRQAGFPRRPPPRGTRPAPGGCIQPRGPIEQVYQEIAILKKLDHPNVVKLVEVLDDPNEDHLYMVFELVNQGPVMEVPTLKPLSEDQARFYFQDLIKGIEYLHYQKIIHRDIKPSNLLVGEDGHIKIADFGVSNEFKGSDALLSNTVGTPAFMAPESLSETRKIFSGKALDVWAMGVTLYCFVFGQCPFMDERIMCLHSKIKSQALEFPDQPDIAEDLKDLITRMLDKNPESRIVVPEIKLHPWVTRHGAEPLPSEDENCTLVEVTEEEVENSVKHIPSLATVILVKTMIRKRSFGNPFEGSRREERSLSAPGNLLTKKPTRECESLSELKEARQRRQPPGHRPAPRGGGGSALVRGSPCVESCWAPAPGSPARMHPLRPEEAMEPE

SMILES	Activity [1] [%]	Activity [2] [%]	Activity [3] [%]	Activity [4] [%]	Activity [5] [%]	Activity [6] [%]	Activity [7] [%]	Activity [8] [%]	Activity [9] [%]	Activity [10] [%]
COc1cc2ncnc(N[C@H](C)c3cccc4ccccc34)c2cc1OC	100	100	92	87	100	95	89	83	100	100
COc1cc2nc(C)nc(N[C@H](C)c3cccc(-c4cn[nH]c4)c3)c2cc1OC	94	73	65	97	92	88	61	94	100	100
